From patent publication US9737525B2, “Small molecule activators of NRF2 pathway” (The General Hospital Corporation, priority 2013, dated 2017)
Entries after “also recorded” stand apart in the source; their conditions may differ.

Tests used:
[1] = system: 5×-ARE promoter-luciferase reporter; test: 5×-ARE-luciferase reporter assay in primary corticostriatal co-cultures; type: cell-based, mouse; conditions: 5 μM, 4 hr or 16 hr
Experimental: Primary corticostriatal neuronal co-cultures were prepared from E18 mouse brains as previously described [Kaltenbach, 2010]. Mice were maintained in accordance with Duke University Medical Center Institutional Animal Care and Use Committee guidelines. For 5×-ARE-luciferase reporter assays, neurons were transfected following their isolation (Nucleofector, Lonza) with 2.5 μg Cignal Antioxidant Response Reporter dual luciferase plasmids (Qiagen/SABiosciences) and plated onto pre-established glial beds in 96 well plates. After 4 days in culture at 37° C. under 5% CO2, co-cultures were treated with the indicated compounds for 4 hr or 16 hr then harvested and read for luminescence from firefly and Renilla luciferases according to the Dual Glo luciferase protocol (Promega) using a SpectraMaxL luminometer (Molecular Devices). Each sample was measured in technical triplicate. For quantitative RT-PCR (qPCR) of ARE target genes, corticostriatal co-cultures were prepared as described above and, after 4 days in culture, treated for 6 hr with the indicated compounds followed by RNA harvesting according to the Absolutely RNA miniprep protocol (Agilent Technologies). Purified RNA was converted to cDNA using random hexamers and SuperScript First-Strand RT-PCR Synthesis (Invitrogen). […] Ct values were determined using primer sets against ARE genes Hmox1, Gclc and Nqo1]. […]

[2] = system: NRF2-responsive proteins NQO1 and GCLM; test: Induction of NQO1 and GCLM proteins in differentiated ST14A cells (immunoblotting); type: cell-based, rat; conditions: differentiated HD mutant and wild type ST14A cells, 24 hours
Experimental: (§1) To assess protein levels, cell extracts were prepared from cells washed with PBS and lysed with buffer containing 2% SDS, Complete EDTA-free Protease Inhibitor Cocktail (Roche) and 1 mM phenylmethylsulfonyl fluoride. To prepare brain extracts for analysis, frozen mouse cortical tissues were homogenized in PBS containing protease inhibitors with an Kontes Pellet Pestle (Kimble/Kontes). They were later sonicated and lysed overnight at 4° C. in 2× volume of lysis buffer containing 2% SDS and protease inhibitors. Protein concentrations in ST14A cell extracts and homogenized cortical tissues were evaluated using a BCA analysis kit and normalized. Samples were prepared in a SDS buffer containing DTT and separated on bis-acrylamide protein gels via electrophoresis and transferred onto a 0.2 μm PVDF membrane). Membranes were probed for NQO1 (Sigma N5288, 1:1,000), GCLM, (Abcam ab126704, 1:800), SIRT2 (Sigma S8447, 1:2,500), histone H3 (Cell Signaling 4499, 1:2,000), acetylated H3 (K56) (Millipore 04-1135, 1:500), TNFα (Abcam ab1793, 1:1,500), GADPH (Millipore MAB374, 1:10,000), actin (Sigma A2066, 1:1250), α-tubulin (Sigma T6074, 1:20,000), and acetylated α-tubulin (Sigma T6793, 1:2,500) overnight in 5% milk in PBST at 4° C. on a rocker. Membranes were thrice washed in PBST for 15 min on a shaker and incubated in either an anti-rabbit-HRP (Bio-Rad 170-5046, 1:10,000) or anti-mouse-HRP (Sigma A3682, 1:4,000) secondary solution as appropriate in 3% milk in PBST for 1 hr at room temperature on a rocker. After four washes of 15 min in PBST on a shaker, blots were visualized using SuperSignal West Pico Chemiluminescent Substrate (Pierce 34080) or SuperSignal West Dura Extended Duration Substrate (Thermo 34075) and exposed on Scientific Imaging Film (Kodak 864 6770).
Compound bioactivity was tested in the rat embryonic striatal cell lines ST14A, which stably express either a mutant expanded repeat (128Q) or wild type (26Q) 546 amino acid huntingtin (HTT) fragment (a generous gift of E. Cattaneo) (Ehrlich et al., 2001) ST14A cells were propagated at 33° C. in the presence of serum. To induce neuronal differentiation, cells were serum deprived and cultured at 37° C. in the presence of N2 supplement. Cells were treated with compounds concurrently with induction of neuronal differentiation for 24 hours, as described (Quinti et al., 2010).
The NRF2 activation properties of further MIND4 structural analogs with variable potencies of SIRT2 inhibition were tested as described previously (see Table 1) Changes in expression of the canonical NRF2-responsive proteins NQO1 and GCLM, the transcription of which was induced by MIND4, was selected as a readout of pathway activation. Protein levels of NQO1 and GCLM were examined by immunoblotting in compound treated mutant HD and wild-type ST14A cells. […] This hypothesis was tested using a second panel of MIND4 analogs (see Table 3).

[3] = system: NRF2-target proteins NQO1 and GCLM; test: NQO1 and GCLM proteins in wild type mouse cortical neurons (immunoblotting); type: cell-based; conditions: wild type mouse cortical neurons (6 DIV), 24 hr
Experimental: as §1
Dose-response induction of NRF2-target proteins NQO1 and GCLM in wild type mouse cortical neurons (6 DIV) treated with MIND4 and MIND4-17 for 24 hr was consistent with the compound effects on ARE-dependent gene transcription (FIG. 24E).

[4] = system: primary cortical neurons expressing 140Q full-length mutant huntingtin; test: Neuronal viability assay (MTT), wild type and HD primary cortical neurons; type: cell-based, mouse; conditions: for Cytotoxicity in primary neurons: 0.5 μM and higher
Experimental: Embryonic tissue from wild type and 140Q mouse brains (E15-E17 days into pregnancy) was used to isolate and plate cortical neurons as described (Valencia et al., 2013). Neurons were plated at 8×10^5 cell/ml in a 24-well plate supplemented with 25 μM of L-glutamate and 10 μM of 2-β-mercapto-ethanol (Gibco). Plates were previously coated with poly-L-lysine (30-70 kDa, SIGMA) in borate buffer at pH 8.0 and coated again using DMEM/F12+FBS 10% for 2 hours prior to plating. After 3 days in culture, neurons were treated with 10 μM of β-D-cytosine arabinofurinoside for 24 hours to prevent the proliferation of non-neuronal cells.
Neurons were supplemented with MIND4 at different concentrations 0, 0.1, 0.25 and 0.5 μM at days in vitro 4, 6 and 8 (FIG. 3A). […] To maintain drug concentrations, half of the culture media was replenished with fresh media at each time point and MIND4 treatment doses were adjusted accordingly. Cell viability was measured at DIV 10 as previously described based on the ability of viable neurons to transformed MTT (3-(4,5-Dimethylthiazol-2-yl)-2,5-diphenyltetrazolium bromide) into formazan blue crystals (Valencia et al., 2013). Neurons were incubated with 0.5 mg/ml of MTT for 15 minutes, media was then discarded and formazan blue crystals were dissolved in DMSO 100% and read at 540 nm in a Vector plate reader. Results are expressed as Mean±Standard deviation absorbance units at 540 nm (AU). P values were obtained using a Student's t-test from an N=6 wells per condition for treated wild type and HD neurons.
Cell survival was measured as MTT transformation at 10 days in vitro (DIV). Neurons were treated three times with the compounds at 4, 6 and 8 DIV at the indicated concentrations. Two independent experiments were performed with a total of 13 embryos per genotype, 6 WT and 7 HD respectively; 6 wells were used for each experimental condition (compound dose).

[5] = 0.25 μM, treated at 4, 6 and 8 DIV, MTT at 10 DIV

O=[N+]([O-])c1ccc(Sc2nnc(COc3ccccc3)n2-c2ccccc2)c2ncccc12 [MIND4, 5-nitro-8-{[5-(phenoxymethyl)-4-phenyl-4H-1,2,4-triazol-3-yl]thio}quinoline]
Transcriptional rate of 5×-ARE promoter-luciferase reporter [1]: able to induce increases in the transcriptional rate
Induction of NRF2-responsive proteins NQO1 and GCLM [2]: induced dose-dependent increases of NQO1 and GCLM protein
Expression of NQO1 protein [3]: increased the expression of NQO1 protein to the same extent
Survival of HD neurons ([4]; 0.1 μM): partially improved survival
Survival of HD neurons ([4]; 0.1 μM and 0.25 μM, treated at DIV 4, 6, 8, MTT at DIV 10): improved survival of HD neurons at both doses
Survival of HD neurons [4, 5]: enhanced survival of HD neurons
Cytotoxicity in primary neurons [4]: cytotoxic
Effect on control cortical neurons from wild type mice ([4]; 7 days of treatment): No effects

O=[N+]([O-])c1ccc(Sc2nnc(COc3ccccc3)n2-c2ccccc2)nc1 [MIND4-17]
Transcriptional rate of 5×-ARE promoter-luciferase reporter [1]: able to induce increases in the transcriptional rate
Induction of NRF2-responsive proteins NQO1 and GCLM [2]: potently induces NRF2-responses; also recorded: dose-dependent induction of NQO1 protein
Expression of NQO1 protein [3]: increased the expression of NQO1 protein to the same extent
GCLM expression [3]: more potent inducer of GCLM expression
Survival of HD neurons [4, 5]: enhanced survival of HD neurons
Cytotoxicity in primary neurons [4]: cytotoxic
